Data reported in patent publication US7435744B2, “Piperidine derivatives as NMDA receptor antagonists” (Gedeon Richter Vegyeszeti Gyar RT, priority 2001, dated 2008).
Where two headings read alike, the source gives them in different places.

Legend:
[1] = target: T1, NMDA receptors (NR2B subunit containing) (Rattus norvegicus, UniProt P35439+Q00960); experiment: Functional NMDA antagonist potency: intracellular calcium measurement in primary cultures of rat cortical neurons (fluorimeter plate reader); assay type: cell-based
T1 construct: endogenous in cells; host or cells: primary neocortical neurons from 17 day old Charles River rat embryos, 4-7 days in vitro
T1 sequence (Q00960 27-1482, other chains not shown): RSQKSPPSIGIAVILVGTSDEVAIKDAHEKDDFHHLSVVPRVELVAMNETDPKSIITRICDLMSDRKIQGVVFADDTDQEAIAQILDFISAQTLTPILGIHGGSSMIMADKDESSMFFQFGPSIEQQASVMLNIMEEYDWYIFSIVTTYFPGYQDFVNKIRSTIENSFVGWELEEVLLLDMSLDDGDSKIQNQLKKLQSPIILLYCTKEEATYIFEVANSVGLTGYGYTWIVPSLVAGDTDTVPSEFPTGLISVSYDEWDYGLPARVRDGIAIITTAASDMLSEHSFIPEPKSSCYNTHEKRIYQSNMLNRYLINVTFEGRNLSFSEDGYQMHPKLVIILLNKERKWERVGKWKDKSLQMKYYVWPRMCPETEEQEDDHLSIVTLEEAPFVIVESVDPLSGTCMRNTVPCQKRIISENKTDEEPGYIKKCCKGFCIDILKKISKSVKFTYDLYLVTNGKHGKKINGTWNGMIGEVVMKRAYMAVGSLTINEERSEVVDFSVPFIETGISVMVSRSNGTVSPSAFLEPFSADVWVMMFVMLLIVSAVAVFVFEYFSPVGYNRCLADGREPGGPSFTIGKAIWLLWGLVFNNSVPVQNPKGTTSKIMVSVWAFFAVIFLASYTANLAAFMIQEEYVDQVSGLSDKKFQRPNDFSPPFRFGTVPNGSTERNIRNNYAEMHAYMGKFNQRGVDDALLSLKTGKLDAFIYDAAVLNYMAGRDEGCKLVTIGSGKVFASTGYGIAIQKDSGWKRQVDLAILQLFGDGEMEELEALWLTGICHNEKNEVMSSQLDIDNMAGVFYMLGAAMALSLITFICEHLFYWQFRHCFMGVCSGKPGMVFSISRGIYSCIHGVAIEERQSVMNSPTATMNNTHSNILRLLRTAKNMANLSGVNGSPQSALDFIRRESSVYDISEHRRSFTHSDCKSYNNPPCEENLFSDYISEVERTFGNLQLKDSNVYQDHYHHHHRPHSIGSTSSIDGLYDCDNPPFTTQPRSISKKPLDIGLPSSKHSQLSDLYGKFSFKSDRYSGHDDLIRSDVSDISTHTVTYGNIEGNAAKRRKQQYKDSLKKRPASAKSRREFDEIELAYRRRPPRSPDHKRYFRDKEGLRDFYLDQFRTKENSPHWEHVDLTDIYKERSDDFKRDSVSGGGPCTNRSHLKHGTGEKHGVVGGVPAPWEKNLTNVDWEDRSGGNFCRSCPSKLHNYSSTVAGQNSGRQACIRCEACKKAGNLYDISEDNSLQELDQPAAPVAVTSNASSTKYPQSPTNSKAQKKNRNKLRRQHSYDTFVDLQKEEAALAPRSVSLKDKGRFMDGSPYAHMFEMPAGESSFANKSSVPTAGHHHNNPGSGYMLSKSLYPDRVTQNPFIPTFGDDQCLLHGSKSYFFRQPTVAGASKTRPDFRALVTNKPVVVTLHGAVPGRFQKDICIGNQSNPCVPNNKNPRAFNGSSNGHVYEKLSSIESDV
From the text: Assessing the Functional NMDA Antagonist Potency of Compounds in Primary Cultures of Rat Cortical Neurons Based on Measuring the Intracellular Calcium Concentration Using a Fluorimeter Plate Reader
It is known that during postnatal development the subunit composition of neuronal NMDA receptors is changing. […] According to data in the literature and to our own immunocytochemical examinations neuronal cells cultured for 4-7 days in vitro predominantly express the NR2B subunit, together with NR1 subunit. Therefore, functional test of NMDA antagonism in these cells reflects mainly an action on NR2B subunit containing receptors. Since NMDA receptors are known to be permeable to calcium ions upon excitation, the extent of NMDA receptor activation, and its inhibition by functional antagonists can be characterised by measuring the rise in the intracellular calcium concentration following agonist (NMDA) application onto the cells. Since there is very high sequence homology between rat and human NMDA receptors (99, 95, 97% for NR1, NR2A, and NR2B subunits, respectively), it is believed that there is little, if any, difference in their pharmacological sensitivity.
In: Protocols for Neural Cell Culture, eds: Fedoroff, S.; Richardson A., The Humana Press Inc., 13-38.] After isolation, the cells are plated onto standard 96-well microplates and the cultures are maintained in an atmosphere of 95% air-5% CO2 at 37° C. until testing.
The cultures are used for the intracellular calcium measurements after 4-7 days in vitro. […] Loading is stopped by washing twice with the solution used also during the measurement (140 mM NaCl, 5 mM KCl, 2 mM CaCl2, 5 mM HEPES [4-(2-hydroxyethyl)-1-piperazineethane-sulfonic acid], 5 mM HEPES-Na, 20 mM glucose, 10 μM glycine, pH=7.4). Then the test compound dissolved in the above solution (90 μl/well) is added. Intracellular calcium measurements are carried out with a plate reader fluorimeter. A rise is induced by application of 40 μM NMDA in Fluo-4-fluorescence that reflects the intracellular calcium concentration. Inhibitory potency of the test compound is assessed by measuring the reduction in the calcium elevation in the presence of different concentrations of the compound. After the measurement, a standard calibration procedure [Meth. Cell.
Inhibitory potency of a compound at a single concentration point is expressed as percent inhibition of the control NMDA response. Sigmoidal concentration-inhibition curves are fitted over the data and IC50 values are defined as the concentration that produces half of the maximal inhibition that could be achieved with the compound. Mean IC50 values are derived from at least three independent experiments.
(§1) wherein for NMDA IC50—IC50 is determined by the intracellular Ca^2+-concentartion assay on cortical neurons; and for Ro-binding IC50—IC50 is determined by the [^3H]-Ro 25,6981 binding assay on rat cerebral membranes.

[2] = target: T2, NR2B subunit (Rattus norvegicus, UniProt P35439+Q00960); experiment: [3H]-Ro 25,6981 binding assay on rat cerebral membranes
T2 construct: from tissue; host or cells: forebrain membranes of male Wistar rats
T2 sequence (Q00960 27-1482, other chains not shown): as above
Protocol: Determining Binding of Compounds to NR2B Subunit by [^3H]-Ro 25,6981 Binding Assay
Briefly, membranes are isolated from the forebrain of male Wistar rats. They are incubated in the presence and absence of test compound for 2 hours at room temperature. […] The applied radioligand (^3H-Ro-25,6981) concentration is 4 nM.
as §1

[3] = system: NMRI mice; experiment: Mouse formalin test (second phase) for in vivo efficacy; conditions: p.o. 15 min before formalin, licking time 20 to 25 min after formalin, >20 = inhibition less than 50% at 20 mg/kg p.o.; for ED50: po
Protocol: Mouse Formalin Test for Measurement of In Vivo Efficacy
Injection of diluted formalin into the hind paw of rats or mouse is known to elicit a biphasic pain related behaviour measured as time spent by licking/biting of the injured paw. The second phase is generally defined as pain related events detected in the 15-60 min. time interval after formalin injection. It is known that NMDA receptors are involved in the second phase of response to formalin injection and this behavioural response is sensitive to blockade of NMDA receptors [Dickenson, A. and Besson J.-M. (Eds.): Chapter 1, pp. 6-7: Animal models of Analgesia; and Chapter 8, pp. 180-183: Mechanism of Central Hypersensitivity: Excitatory Amino Acid Mechanisms and Their Control—In Pharmacology of Pain. Springer-Verlag (Berlin) 1997.] Therefore, we performed the second phase of formalin test to characterise the efficacy of compounds in vivo. Inhibition of the second phase of response is considered to indicate an analgesic effect against chemically-induced persistent pain [Hunskaar, S., et al.: Formalin Test in Mice, a Useful Technique for Evaluating Mild Analgesics, Journal of Neuroscience Methods, 14 (1985) 69-76.] Male albino Charles River NMRI mice (20-25 g) were used. Prior to the experiment any solid food was withdrawn for 16 hours but the animals had free access to 20% glucose solution. The animals were allowed a 1 hour acclimatisation period spent in a glass cylinder (cc. 15 cm in diameter), then moved to an identical cylinder with a mirror placed behind to facilitate observation. The test substances were suspended in 5% tween-80 (10 ml per kg body weight). and administered orally by gavage 15 min before the formalin injection (20 μl of 1% formalin in 0.9% saline injected subcutaneously into the dorsal surface of the right hindpaw). The time spent by licking and biting of the injected paw was measured from 20 to 25 min. after the formalin injection.

[4] = rat cortical neurons 4-7 days in vitro, 40 μM NMDA, Fluo-4 intracellular Ca2+, read-out: NMDA IC50
[5] = rat forebrain membranes, 4 nM [3H]-Ro 25,6981, 2 hours at room temperature, read-out: Ro-binding IC50

**Q.** `O=c1[nH]c2ccc([S+]([O-])CCN3CCC(Cc4ccc(F)cc4)CC3)cc2o1` (centres unmarked) [CI-1041, 6-{2-[4-(4-fluoro-benzyl)-piperidin-1-yl]-ethanesulfinyl}-3H-benzooxazol-2-one, reference compound] was tested. Which IC50 [1] did it give?
**A.** 6.6 nM

**Q.** What about the IC50 [2] of the same compound?
**A.** 4 nM

**Q.** And the ED50 [3]?
**A.** 5.3 mg/kg

**Q.** How did the ED50 [3] turn out when `C[C@@H]([C@@H](O)c1ccc(O)cc1)N1CCC(O)(c2ccccc2)CC1` [CP 101,606, (1S,2S)-1-(4-hydroxyphenyl)-2-(4-hydroxy-4-phenylpiperidine-1-yl)-1-propanol, reference compound] was run?
**A.** > 20 mg/kg

**Q.** Which results are given for `Cc1ccc(CC2(O)CCN(CCOc3ccc(O)cc3)CC2)cc1` [Co-101244, 1-[2-(4-hydroxyphenoxy)ethyl]-4-hydroxy-4-(4-methylbenzyl)piperidine, reference compound]?
**A.** IC50 [1, 4]: 23 nM; IC50 [2, 5]: 3.3 nM; ED50 [3]: > 20 mg/kg

**Q.** With `Oc1ccc(OCCN2CCC(Cc3ccc(F)cc3)CC2)cc1` [Co-111103, 1-[2-(4-hydroxyphenoxy)ethyl]-4-(4-fluorobenzyl)piperidine, reference compound] as the compound, how does the IC50 [2, 5] read?
**A.** 8.4 nM

**Q.** And the ED50 [3]?
**A.** > 20 mg/kg

**Q.** What does the source list for `O=C(CCN1CCC(Cc2ccc(F)cc2)CC1)c1ccc2[nH]c(=O)oc2c1` [EMD 95885, reference compound]?
**A.** IC50 [1, 4]: 35 nM; IC50 [2, 5]: 7.2 nM; ED50 (mg/kg p.o.) [3]: 5.9 mg/kg

**Q.** For `O=C1Cc2cc(NC(=O)C(=O)N3CCC(Cc4ccc(F)cc4)CC3)ccc2N1` [Example 1, 2-[4-(4-Fluoro-benzyl)-piperidin-1-yl]-2-oxo-N-(2-oxo-2,3-dihydro-1H-indol-5-yl)-acetamide], which ED50 [3] is on record?
**A.** 0.46 mg/kg

**Q.** Which IC50 [1, 4] does the source give for `O=C(Nc1ccc2[nH]c(=O)[nH]c2c1)C(=O)N1CCC(Cc2ccc(F)cc2)CC1` [Example 2, 2-[4-(4-Fluoro-benzyl)-piperidin-1-yl]-2-oxo-N-(2-oxo-2,3-dihydro-1H-benzimidazol-5-yl)-acetamide] here?
**A.** 0.7 nM

**Q.** What about the IC50 [2, 5] of the same compound?
**A.** 4.7 nM

**Q.** With `O=C(Nc1ccc2[nH]c(=O)oc2c1)C(=O)N1CCC(Cc2ccc(F)cc2)CC1` [Example 3, 2-[4-(4-Fluoro-benzyl)-piperidin-1-yl]-2-oxo-N-(2-oxo-2,3-dihydro-benzoxazol-6-yl)-acetamide] as the compound, how does the IC50 [1, 4] read?
**A.** 3.2 nM

**Q.** And the IC50 [2, 5]?
**A.** 18 nM

**Q.** And the ED50 [3]?
**A.** 6.9 mg/kg

**Q.** With `O=C(Nc1ccc2oc(=O)[nH]c2c1)C(=O)N1CCC(Cc2ccc(F)cc2)CC1` [Example 4, 2-[4-(4-Fluoro-benzyl)-piperidin-1-yl]-2-oxo-N-(2-oxo-2,3-dihydro-benzoxazol-5-yl)-acetamide] as the compound, how does the IC50 [1, 4] read?
**A.** 4710 nM

**Q.** And the IC50 [2, 5]?
**A.** > 30000 nM

**Q.** Which IC50 [1, 4] does the source give for `O=C(Nc1ccc2[nH]c(=O)[nH]c2c1)C(=O)N1CCC(Cc2ccccc2)CC1` [Example 7, 2-(4-Benzyl-piperidin-1-yl)-2-oxo-N-(2-oxo-2,3-dihydro-1H-benzimidazol-5-yl)-acetamide] here?
**A.** 1.4 nM

**Q.** What about the IC50 [2, 5] of the same compound?
**A.** 4.4 nM

**Q.** Which IC50 [1, 4] does the source give for `O=C(Nc1ccc2[nH]c(=O)oc2c1)C(=O)N1CCC(Cc2ccccc2)CC1` [Example 8, 2-(4-Benzyl-piperidin-1-yl)-2-oxo-N-(2-oxo-2,3-dihydro-benzoxazol-6-yl)-acetamide] here?
**A.** 2.4 nM

**Q.** And the IC50 [2, 5]?
**A.** 5.5 nM

**Q.** What does the source list for `CS(=O)(=O)Nc1cccc(NC(=O)C(=O)N2CCC(Cc3ccccc3)CC2)c1` [Example 12, 2-(4-Benzyl-piperidin-1-yl)-N-(3-methanesulfonylamino-phenyl)-2-oxo-acetamide]?
**A.** IC50 [1, 4]: 1010 nM; IC50 [2, 5]: 614 nM

**Q.** How did the IC50 [1, 4] turn out when `O=C1COc2cc(NC(=O)C(=O)N3CCC(Cc4ccccc4)CC3)ccc2N1` [Example 24, 2-(4-Benzyl-piperidin-1-yl)-2-oxo-N-(3-oxo-3,4-dihydro-2H-benzo [1,4]oxazin-7-yl)-acetamide] was run?
**A.** 113 nM

**Q.** What about the IC50 [2, 5] of the same compound?
**A.** 214 nM

**Q.** With `O=C(Nc1ccc2[nH]c(=O)oc2c1)C(=O)N1CCC(Oc2ccc(Cl)cc2)CC1` [Example 31, 2-[4-(4-Chloro-phenoxy)-piperidin-1-yl]-2-oxo-N-(2-oxo-2,3-dihydro-benzoxazol-6-yl)-acetamide] as the compound, how does the ED50 [3] read?
**A.** 4.4 mg/kg

**Q.** How did the ED50 [3] turn out when `Cc1ccc(CC2CCN(C(=O)C(=O)Nc3ccc4c(c3)CC(=O)N4)CC2)cc1` [Example 101, 2-[4-[4-Methyl-benzyl)-piperidin-1-yl]-2-oxo-N-(2-oxo-2,3-dihydro-1H-indol-5-yl)-acetamide] was run?
**A.** 0.48 mg/kg

**Q.** For `O=C(CN1CCC(Cc2ccccc2)CC1)Nc1ccc2c(c1)CC(=O)N2` [Example 143, 2-(4-Benzyl-piperidin-1-yl)-N-(2-oxo-2,3-dihydro-1H-indol-5-yl)-acetamide], which IC50 [1, 4] is on record?
**A.** 164 nM

**Q.** What about the IC50 [2, 5] of the same compound?
**A.** 29 nM

**Q.** `O=C(CN1CCC(Cc2ccccc2)CC1)Nc1ccc2[nH]c(=O)oc2c1` [Example 146, 2-(4-Benzyl-piperidin-1-yl)-N-(2-oxo-2,3-dihydro-benzoxazol-6-yl)-acetamide] was tested. Which IC50 [1, 4] did it give?
**A.** 6 nM

**Q.** What about the IC50 [2, 5] of the same compound?
**A.** 1.7 nM

**Q.** What does the source list for `O=C(CN1CCC(Cc2ccccc2)CC1)Nc1ccc2[nH]ncc2c1` [Example 147, 2-(4-Benzyl-piperidin-1-yl)-N-(1H-indazol-5-yl)-acetamide]?
**A.** IC50 [1, 4]: 1330 nM; IC50 [2, 5]: 121 nM

**Q.** `CC(C(=O)Nc1ccc2[nH]c(=O)oc2c1)N1CCC(Cc2ccccc2)CC1` (centres unmarked) [Example 161, 2-(4-Benzyl-piperidin-1-yl)-N-(2-oxo-2,3-dihydro-1H-benzoxazol-6-yl)-propionamide] was tested. Which ED50 [3] did it give?
**A.** 2.4 mg/kg

**Q.** `O=C(CN1CCC(Cc2ccccc2)CC1)Nc1ccc(O)cc1` [Example 192, 2-(4-Benzyl-piperidin-1-yl)-N-(4-hydroxy-phenyl)-acetamide] was tested. Which ED50 [3] did it give?
**A.** 17 mg/kg

**Q.** What does the source list for `O=C(CNc1ccc2[nH]c(=O)[nH]c2c1)N1CCC(Cc2ccc(F)cc2)CC1` [Example 197, 5-{2-[4-(4-Fluoro-benzyl)-piperidin-1-yl]-2-oxo-ethylamino}-1,3-dihydro-benzoimidazol-2-one]?
**A.** IC50 [1, 4]: 48 nM; IC50 [2, 5]: 91 nM

**Q.** For `O=C(CNc1ccc2[nH]ncc2c1)N1CCC(Cc2ccc(F)cc2)CC1` [Example 199, 1-[4-(4-Fluoro-benzyl)-piperidin-1-yl]-2-(1H-indazol-5-yl-amino)-ethanone], which IC50 [1, 4] is on record?
**A.** 533 nM

**Q.** What about the IC50 [2, 5] of the same compound?
**A.** 972 nM

**Q.** How did the IC50 [2] turn out when `C[C@@H](CN1CCC(Cc2ccccc2)CC1)[C@@H](O)c1ccc(O)cc1` [Ro 25.6981, R—(R*,S*)-1-(4-hydroxyphenyl)-2-methyl-3-[4-(phenylmethyl)piperidin-1-yl]-1-propanol, reference compound] was run?
**A.** 5.9 nM

**Q.** And the ED50 [3]?
**A.** > 20 mg/kg
